Assay results published in PubChem BioAssay (NCI).
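Results reflect a 48-hour exposure of cells in 96-well plates to compound at five concentrations. Here, GI50 denotes the concentration required for 50% inhibition of growth. TGI: total growth inhibition.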

Legend:
Assay in all cases: growth of human tumour cells (NCI), 48 h
HS 578T breast = tested on: HS 578T breast
SW-620 colon = tested on: SW-620 colon
ACHN renal = tested on: ACHN renal
A549 NSCLC = tested on: A549 NSCLC
NCI/ADR-RES ovarian = tested on: NCI/ADR-RES ovarian
NCI-H522 lung = tested on: NCI-H522 lung
SNB-19 CNS = tested on: SNB-19 CNS
M14 melanoma = tested on: M14 melanoma
HL-60(TB) leukemia = tested on: HL-60(TB) leukemia
CAKI-1 renal = tested on: CAKI-1 renal
HOP-92 NSCLC = tested on: HOP-92 NSCLC
SK-MEL-28 melanoma = tested on: SK-MEL-28 melanoma
HCT-116 colon = tested on: HCT-116 colon
EKVX NSCLC = tested on: EKVX NSCLC
IGROV1 ovarian = tested on: IGROV1 ovarian
DU-145 prostate = tested on: DU-145 prostate
NCI-H460 lung = tested on: NCI-H460 lung
SR leukemia = tested on: SR leukemia
COLO 205 colon = tested on: COLO 205 colon
OVCAR-3 ovarian = tested on: OVCAR-3 ovarian
NCI-H226 lung = tested on: NCI-H226 lung
OVCAR-5 ovarian = tested on: OVCAR-5 ovarian
TK-10 renal = tested on: TK-10 renal
HT29 colon = tested on: HT29 colon
HCC-2998 colon = tested on: HCC-2998 colon
SNB-75 CNS = tested on: SNB-75 CNS
SF-539 CNS = tested on: SF-539 CNS
U251 CNS = tested on: U251 CNS
MOLT-4 leukemia = tested on: MOLT-4 leukemia
KM12 colon = tested on: KM12 colon
UACC-257 melanoma = tested on: UACC-257 melanoma
PC-3 prostate = tested on: PC-3 prostate
MCF7 breast = tested on: MCF7 breast
A498 renal = tested on: A498 renal
SK-MEL-2 melanoma = tested on: SK-MEL-2 melanoma
MALME-3M melanoma = tested on: MALME-3M melanoma
BT-549 breast = tested on: BT-549 breast
OVCAR-8 ovarian = tested on: OVCAR-8 ovarian
OVCAR-4 ovarian = tested on: OVCAR-4 ovarian
UACC-62 melanoma = tested on: UACC-62 melanoma
HCT-15 colon = tested on: HCT-15 colon
SN12C renal = tested on: SN12C renal
MDA-MB-435 = tested on: MDA-MB-435
SF-268 CNS = tested on: SF-268 CNS
786-0 renal = tested on: 786-0 renal
T-47D breast = tested on: T-47D breast
RXF 393 renal = tested on: RXF 393 renal
SK-OV-3 ovarian = tested on: SK-OV-3 ovarian
LOX IMVI melanoma = tested on: LOX IMVI melanoma
NCI-H23 lung = tested on: NCI-H23 lung
K-562 leukemia = tested on: K-562 leukemia
RPMI-8226 leukemia = tested on: RPMI-8226 leukemia
MDA-MB-231 breast = tested on: MDA-MB-231 breast
SF-295 CNS = tested on: SF-295 CNS
SK-MEL-5 melanoma = tested on: SK-MEL-5 melanoma
HOP-62 NSCLC = tested on: HOP-62 NSCLC
CCRF-CEM leukemia = tested on: CCRF-CEM leukemia
UO-31 renal = tested on: UO-31 renal

SMILES: O=C1C(=O)c2ccc(Br)cc2-c2cc(Br)ccc21
- GI50 (HS 578T breast): 8.27 µM
- TGI (HS 578T breast): > 78.9 µM
- GI50 (SW-620 colon): 0.84 µM
- TGI (SW-620 colon): 2.91 µM
- GI50 (ACHN renal): 1.52 µM
- GI50 (A549 NSCLC): 5.37 µM
- TGI (A549 NSCLC): > 95.6 µM
- GI50 (NCI/ADR-RES ovarian): 1.59 µM
- TGI (NCI/ADR-RES ovarian): 8.12 µM
- GI50 (NCI-H522 lung): 0.407 µM
- TGI (NCI-H522 lung): 1.74 µM
- GI50 (SNB-19 CNS): 11 µM
- TGI (SNB-19 CNS): > 100 µM
- GI50 (M14 melanoma): 6.34 µM
- TGI (M14 melanoma): > 66.6 µM
- GI50 (HL-60(TB) leukemia): 0.607 µM
- TGI (HL-60(TB) leukemia): 1.71 µM
- GI50 (CAKI-1 renal): 2.09 µM
- TGI (CAKI-1 renal): 9.92 µM
- GI50 (HOP-92 NSCLC): 1.36 µM
- TGI (HOP-92 NSCLC): 9.5 µM
- GI50 (SK-MEL-28 melanoma): 5.52 µM
- TGI (SK-MEL-28 melanoma): > 55.5 µM
- GI50 (HCT-116 colon): 0.587 µM
- TGI (HCT-116 colon): 1.43 µM
- GI50 (EKVX NSCLC): > 100 µM
- TGI (EKVX NSCLC): > 100 µM
- GI50 (IGROV1 ovarian): 6.57 µM
- TGI (IGROV1 ovarian): 29.5 µM
- GI50 (DU-145 prostate): 7.29 µM
- TGI (DU-145 prostate): > 100 µM
- GI50 (NCI-H460 lung): 4.5 µM
- TGI (NCI-H460 lung): > 89.2 µM
- GI50 (SR leukemia): 0.998 µM
- TGI (SR leukemia): 2.92 µM
- GI50 (COLO 205 colon): > 100 µM
- TGI (COLO 205 colon): > 100 µM
- GI50 (OVCAR-3 ovarian): 0.619 µM
- TGI (OVCAR-3 ovarian): 1.36 µM
- GI50 (NCI-H226 lung): > 60.1 µM
- TGI (NCI-H226 lung): > 100 µM
- GI50 (OVCAR-5 ovarian): > 41.6 µM
- TGI (OVCAR-5 ovarian): > 62.2 µM
- GI50 (TK-10 renal): 22.7 µM
- TGI (TK-10 renal): > 100 µM
- GI50 (HT29 colon): > 74.3 µM
- TGI (HT29 colon): > 100 µM
- GI50 (HCC-2998 colon): 21.3 µM
- TGI (HCC-2998 colon): > 100 µM
- GI50 (SNB-75 CNS): > 54.6 µM
- TGI (SNB-75 CNS): > 100 µM
- GI50 (SF-539 CNS): 8.43 µM
- TGI (SF-539 CNS): 26.3 µM
- GI50 (U251 CNS): 1.42 µM
- TGI (U251 CNS): 9.04 µM
- GI50 (MOLT-4 leukemia): 0.522 µM
- TGI (MOLT-4 leukemia): 1.66 µM
- GI50 (KM12 colon): 9.65 µM
- TGI (KM12 colon): > 100 µM
- GI50 (UACC-257 melanoma): 1.62 µM
- TGI (UACC-257 melanoma): 4.19 µM
- GI50 (PC-3 prostate): 20.3 µM
- TGI (PC-3 prostate): > 96.6 µM
- GI50 (MCF7 breast): 2.34 µM
- TGI (MCF7 breast): 8.61 µM
- GI50 (A498 renal): > 28.1 µM
- TGI (A498 renal): > 100 µM
- GI50 (SK-MEL-2 melanoma): 10.4 µM
- TGI (SK-MEL-2 melanoma): > 100 µM
- GI50 (MALME-3M melanoma): 7.74 µM
- TGI (MALME-3M melanoma): > 52.3 µM
- GI50 (BT-549 breast): 7.69 µM
- TGI (BT-549 breast): > 95.3 µM
- GI50 (OVCAR-8 ovarian): 0.852 µM
- TGI (OVCAR-8 ovarian): 2.57 µM
- GI50 (OVCAR-4 ovarian): 0.274 µM
- TGI (OVCAR-4 ovarian): 0.696 µM
- GI50 (UACC-62 melanoma): 15.2 µM
- TGI (UACC-62 melanoma): > 64.9 µM
- GI50 (HCT-15 colon): 1.28 µM
- TGI (HCT-15 colon): > 35 µM
- GI50 (SN12C renal): 2.14 µM
- TGI (SN12C renal): 11.2 µM
- GI50 (MDA-MB-435): 1.76 µM
- TGI (MDA-MB-435): 4.07 µM
- GI50 (SF-268 CNS): 1.35 µM
- TGI (SF-268 CNS): 8.58 µM
- GI50 (786-0 renal): 10.4 µM
- TGI (786-0 renal): > 56.3 µM
- GI50 (T-47D breast): 1.41 µM
- TGI (T-47D breast): 3.92 µM
- GI50 (RXF 393 renal): 1.85 µM
- TGI (RXF 393 renal): 7.36 µM
- GI50 (SK-OV-3 ovarian): 29.1 µM
- TGI (SK-OV-3 ovarian): > 87.5 µM
- GI50 (LOX IMVI melanoma): 0.717 µM
- TGI (LOX IMVI melanoma): 2.13 µM
- GI50 (NCI-H23 lung): 2.56 µM
- TGI (NCI-H23 lung): 13.2 µM
- GI50 (K-562 leukemia): 0.799 µM
- TGI (K-562 leukemia): > 29.8 µM
- GI50 (RPMI-8226 leukemia): 1.63 µM
- TGI (RPMI-8226 leukemia): 6.82 µM
- GI50 (MDA-MB-231 breast): 0.82 µM
- TGI (MDA-MB-231 breast): 2.54 µM
- GI50 (SF-295 CNS): 51.8 µM
- TGI (SF-295 CNS): > 100 µM
- GI50 (SK-MEL-5 melanoma): 3.89 µM
- TGI (SK-MEL-5 melanoma): > 33 µM
- GI50 (HOP-62 NSCLC): 8.44 µM
- TGI (HOP-62 NSCLC): > 45.6 µM
- GI50 (CCRF-CEM leukemia): 0.553 µM
- TGI (CCRF-CEM leukemia): 1.83 µM
- GI50 (UO-31 renal): 5.61 µM
- TGI (UO-31 renal): > 100 µM
